Reference: patent US20090093469A1, “Phenylaminopropanol Derivatives and Methods of Their Use” (WYETH, priority 2004, published 2009)
Structures can show the parent of a compound that is named as a salt.

biological target: T1, hNET (Homo sapiens, UniProt P23975); experiment: Norepinephrine (NE) uptake assay in MDCK-Net6 cells stably transfected with human hNET; format: cell-based; conditions: MDCK-Net6, read-out: % Inhibition @ 1 μM (hNET)
T1 construct: expressed in transfected cells
T1 sequence (P23975 whole entry): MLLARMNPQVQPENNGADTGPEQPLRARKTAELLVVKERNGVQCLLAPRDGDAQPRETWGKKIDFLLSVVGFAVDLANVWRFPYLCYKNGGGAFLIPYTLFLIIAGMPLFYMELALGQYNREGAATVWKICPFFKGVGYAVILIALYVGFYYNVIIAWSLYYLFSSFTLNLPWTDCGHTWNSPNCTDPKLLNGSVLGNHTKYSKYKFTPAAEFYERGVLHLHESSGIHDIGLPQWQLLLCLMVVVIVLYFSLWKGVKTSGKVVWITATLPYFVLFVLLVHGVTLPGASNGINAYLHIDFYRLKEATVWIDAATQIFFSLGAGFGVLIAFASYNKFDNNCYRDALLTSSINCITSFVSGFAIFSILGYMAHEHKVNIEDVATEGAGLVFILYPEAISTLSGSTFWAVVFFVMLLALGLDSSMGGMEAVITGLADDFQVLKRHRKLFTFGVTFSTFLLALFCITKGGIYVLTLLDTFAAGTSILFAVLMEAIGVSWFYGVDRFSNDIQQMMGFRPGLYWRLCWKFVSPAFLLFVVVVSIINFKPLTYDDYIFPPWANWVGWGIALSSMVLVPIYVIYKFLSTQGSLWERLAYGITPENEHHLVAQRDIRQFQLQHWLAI

SMILES	inhibition at 1 µM
CNC[C@@H](O)[C@H](c1cccc(F)c1)n1ccc2c(Cl)cccc21 [Example 150, (1S,2R)-1-(4-chloro-1H-indol-1-yl)-1-(3-fluorophenyl)-3-(methylamino)propan-2-ol hydrochloride]	98.3%
CNC[C@@H](O)[C@H](c1ccccc1)n1c(=O)n(C(C)(C)C)c2ccccc21 [Example 192, 1-tert-Butyl-3-(2-hydroxy-3-methylamino-1-phenyl-propyl)-1,3-dihydro-benzoimidazol-2-one hydrochloride]	54.6%
CCn1c(=O)n([C@@H](c2ccccc2)[C@H](O)CNC)c2ccccc21 [Example 200, 1-Ethyl-3-[(1S,2R)-2-hydroxy-3-(methylamino)-1-phenylpropyl]-1,3-dihydro-2H-benzimidazol-2-one hydrochloride]	97.9%
CNC[C@@H](O)[C@H](c1ccccc1)n1c(=O)n(C2CCCC2)c2ccccc21 [Example 202, 1-Cyclopentyl-3-[(1S,2R)-2-hydroxy-3-(methylamino)-1-phenylpropyl]-1,3-dihydro-2H-benzimidazol-2-one hydrochloride]	92.7%
CNC[C@@H](O)[C@H](c1cccc(F)c1)n1c(=O)n(C(C)C)c2cccc(F)c21 [Example 208, 4-fluoro-3-[(1S,2R)-1-(3-fluorophenyl)-2-hydroxy-3-(methylamino)-propyl]-1-isopropyl-1,3-dihydro-2H-benzimidazol-2-one hydrochloride]	99.8%
CNC[C@H](O)[C@@H](c1ccccc1)n1ccc2cc(Cl)ccc21 (racemic) [Example 26, (1RS,2SR)-1-(5-chloro-1H-indol-1-yl)-3-(methylamino)-1-phenylpropan-2-ol hydrochloride]	54%
CNC[C@H](O)[C@H](c1cccc(F)c1)n1ccc2ccccc21 [Example 139, (1S,2S)-1-(3-fluorophenyl)-1-(1H-indol-1-yl)-3-(methylamino)propan-2-ol hydrochloride]	94.9%
CNC[C@@H](O)[C@H](c1ccccc1)n1ccc2cc(OC)ccc21 (racemic) [Example 80, (1RS,2SR)-1-(5-methoxy-1H-indol-1-yl)-3-(methylamino)-1-phenyl propan-2-ol hydrochloride]	83.5%
CNC[C@@H](O)[C@@H](c1ccccc1)n1ccc2cc(Cl)ccc21 (racemic) [Example 27, hydrochloride]	75.4%
CCn1c(=O)n([C@@H](c2cccc(F)c2)[C@H](O)CNC)c2ccccc21 [Example 199, 1-Ethyl-3-[1-(3-fluoro-phenyl)-2-hydroxy-3-methylamino-propyl]-1,3-dihydro-benzimidazol-2-one hydrochloride]	99.1%
CNC[C@@H](O)[C@H](c1ccccc1)n1c(=O)n(C2CCC2)c2ccccc21 [Example 197, 1-cyclobutyl-3-[(1S,2R)-2-hydroxy-3-(methylamino)-1-phenylpropyl]-1,3-dihydro-2H-benzimidazol-2-one hydrochloride]	97%

same assay, conditions: hydrochloride, 1 µM

SMILES	% Inhibition @ 1 μM (hNET)
CNC[C@H](O)[C@H](c1ccccc1)n1ccc2ccccc21 (stereo in doubt) [Example 30, (1S,2S)-1-(1H-indol-1-yl)-3-(methylamino)-1-phenylpropan-2-ol hydrochloride]	79.7%
CNC[C@@H](O)[C@@H](c1ccccc1)n1ccc2ccccc21 [Example 29, (1R,2R)-1-(1H-indol-1-yl)-3-(methylamino)-1-phenylpropan-2-ol hydrochloride]	89.5%

same assay, conditions: test compound 1 μM; [3H]NE uptake, MDCK-Net6 cells; read-out: % Inhibition @ 1 μM (hNET)

SMILES	inhibition at 1 µM
CNC[C@@H](O)[C@H](c1ccccc1)N1C(=O)C(C)(C)c2c(F)cccc21 [Example 196, 4-fluoro-1-[(1S,2R)-2-hydroxy-3-(methylamino)-1-phenylpropyl]-3,3-dimethyl-1,3-dihydro-2H-indol-2-one hydrochloride]	94.6%
CN(C)C[C@H](O)[C@@H](c1ccccc1)n1ccc2ccccc21 (racemic) [Example 4, (1RS,2SR)-3-(dimethylamino)-1-(1H-indol-1-yl)-1-phenylpropan-2-ol hydrochloride]	24.5%
Cc1cn([C@@H](c2ccccc2)[C@H](O)CN)c2c(F)cccc12 [Example 180, (1S,2R)-3-amino-1-(7-fluoro-3-methyl-1H-indol-1-yl)-1-phenylpropan-2-ol hydrochloride]	70.4%
CNC[C@@H](O)[C@H](c1ccccc1)n1ccc2cccc(C)c21 [Example 91, (1S,2R)-3-(methylamino)-1-(7-methyl-1H-indol-1-yl)-1-phenylpropan-2-ol hydrochloride]	90.8%
CNC[C@@H](OC)[C@H](c1ccccc1)n1cc(C)c2cc(Cl)ccc21 [Example 121, [(2R,3S)-3-(5-chloro-3-methyl-1H-indol-1-yl)-2-methoxy-3-phenylpropyl]methylamine]	21.2%
CNC[C@@H](O)[C@H](c1ccccc1)N1CCc2cccc(C)c21 [Example 66, (1S,2R)-3-(methylamino)-1-(7-methyl-2,3-dihydro-1H-indol-1-yl)-1-phenylpropan-2-ol hydrochloride]	86.6%
NC[C@H](O)[C@@H](c1ccccc1)n1ccc2ccccc21 (racemic) [Example 17, (1RS,2SR)-3-amino-1-(1H-indol-1-yl)-1-phenylpropan-2-ol hydrochloride]	71%
CNC[C@@H](O)[C@H](c1ccccc1OC(F)(F)F)n1ccc2ccccc21 [Example 36, (1S,2R)-1-(1H-indol-1-yl)-3-(methylamino)-1-[2-(trifluoromethoxy)phenyl]propan-2-ol hydrochloride]	82.3%
CN1CCN(C[C@@H](O)[C@H](c2cccc(F)c2)n2ccc3ccccc32)CC1 [Example 58, (1S,2R)-1-(3-fluorophenyl)-1-(1H-indol-1-yl)-3-(4-methylpiperazin-1-yl)propan-2-ol dihydrochloride]	26.5%
O[C@@H](CNCc1ccncc1)[C@@H](c1ccccc1)n1ccc2ccccc21 (racemic) [Example 14, (1RS,2SR)-1-(1H-indol-1-yl)-1-phenyl-3-[(pyridin-4-ylmethyl)amino]propan-2-ol hydrochloride]	24.4%
CNC[C@@H](O)[C@H](c1cccc(F)c1)n1cc(-c2cccc(F)c2)c2ccccc21 [Example 116, (1S,2R)-1-(3-fluorophenyl)-1-[3-(3-fluorophenyl)-1H-indol-1-yl]-3-(methylamino)propan-2-ol hydrochloride]	97.3%
CNC[C@@H](O)[C@H](c1ccccc1)n1ccc2ccc(C)cc21 [Example 90, (1S,2R)-3-(methylamino)-1-(6-methyl-1H-indol-1-yl)-1-phenylpropan-2-ol hydrochloride]	73.1%
CNC[C@@H](O)[C@H](c1ccccc1)N1C(=O)C2(CC2)c2ccccc21 [Example 109, 1′-[(1S,2R)-2-hydroxy-3-(methylamino)-1-phenylpropyl]spiro-[cyclopropane-1,3′-indol]-2′(1′H)-one hydrochloride]	94.7%
O[C@H](CN1CCOCC1)[C@H](c1cccc(F)c1)n1ccc2ccccc21 [Example 56, (1S,2R)-1-(3-fluorophenyl)-1-(1H-indol-1-yl)-3-morpholin-4-ylpropan-2-ol hydrochloride]	12.3%
CNC[C@@H](O)[C@H](c1ccccc1)n1cnc2ccccc21 (racemic) [Example 72, (1RS,2SR)-1-(1H-benzimidazol-1-yl)-3-(methylamino)-1-phenyl propan-2-ol hydrochloride]	24%
CNC[C@@H](O)[C@H](c1ccccc1)n1ccc2ccc(Cl)cc21 [Example 147, (1S,2R)-1-(6-chloro-1H-indol-1-yl)-3-(methylamino)-1-phenylpropan-2-ol hydrochloride]	91.7%
CNC[C@@H](O)[C@H](c1ccccc1)n1c(C)cc2ccccc21 (racemic) [Example 71, (1RS,2SR)-3-(methylamino)-1-(2-methyl-1H-indol-1-yl)-1-phenylpropan-2-ol hydrochloride]	44.9%
CNC[C@@H](O)[C@H](c1cccc(F)c1)n1ccc2c(C#N)cccc21 [Example 131, 1-[(1S,2R)-1-(3-fluorophenyl)-2-hydroxy-3-(methylamino)propyl]-1H-indole-4-carbonitrile hydrochloride]	63.1%
CNC[C@@H](O)[C@H](c1ccccc1)n1ccc2cccc(F)c21 [Example 181, (1S,2R)-1-(7-fluoro-1H-indol-1-yl)-3-(methylamino)-1-phenylpropan-2-ol hydrochloride]	96.9%
NC[C@@H](O)[C@H](c1cccc(F)c1)n1ccc2ccccc21 [Example 134, (1S,2R)-3-amino-1-(3-fluorophenyl)-1-(1H-indol-1-yl)propan-2-ol hydrochloride]	68.5%
CNC[C@@H](O)[C@H](c1ccccc1)n1c(C)nc2ccccc21 (racemic) [Example 73, (1RS,2SR)-3-(methylamino)-1-(2-methyl-1H-benzimidazol-1-yl)-1-phenylpropan-2-ol hydrochloride]	21.8%
CNC[C@@H](O)[C@H](c1ccccc1)n1cc(C(C)C)c2ccccc21 [Example 154, (1S,2R)-1-(3-isopropyl-1H-indol-1-yl)-3-(methylamino)-1-phenylpropan-2-ol hydrochloride]	96.1%
CNC[C@@H](O)[C@H](c1cccc(F)c1)n1ccc2cc(C(F)(F)F)ccc21 [Example 185, (1S,2R)-1-(3-fluorophenyl)-3-(methylamino)-1-[5-(trifluoromethyl)-1H-indol-1-yl]propan-2-ol hydrochloride]	80.8%

same assay, conditions: test compound 10 μM (stated in cell); [3H]NE uptake, MDCK-Net6 cells

SMILES	inhibition at 10 µM
Cc1cn([C@H](c2ccccc2)[C@@H](O)CNC(C)C)c2ccccc12 (racemic) [Example 10, (1RS,2SR)-3-(isopropylamino)-1-(3-methyl-1H-indol-1-yl)-1-phenylpropan-2-ol hydrochloride]	70.5%
